Source: the supplement of paper PMC10307832

Assays:
Test in all cases: relative viability (nuclei count vs DMSO), 5 days (fraction); higher = more cells survive
NCI-H1395 = test system: NCI-H1395
Summary of the method: (§1)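 A single step with final 0.05% Triton X-100, 1% formaldehyde and 1 ug/ml Hoechst fixed the cells and stained nuclei 5 days after treatment. Lung cancer cell lines in 1536-well plates had been treated by pin tool the day after seeding with one drug alone or a fixed anchor-drug dose plus five library-drug doses (not always all listed) in √10 steps, and nuclei were counted on 4× images. Relative viability is the ratio of nuclei in treated wells to nuclei in vehicle wells, taken as the median of duplicate plates.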

NCI-H647 = test system: NCI-H647
Summary of the method: as §1

HCC-366 = test system: HCC-366
Summary of the method: as §1

LU99A = test system: LU99A
Summary of the method: as §1

CAL-12T = test system: CAL-12T
Summary of the method: as §1

NCI-H1666 = test system: NCI-H1666
Summary of the method: as §1

NCI-H520 = test system: NCI-H520
Summary of the method: as §1

NCI-H522 = test system: NCI-H522
Summary of the method: as §1

PC-3 [JPC-3] = test system: PC-3 [JPC-3]
Summary of the method: as §1

HARA = test system: HARA
Summary of the method: as §1

LC-2-ad = test system: LC-2-ad
Summary of the method: as §1

HCC-15 = test system: HCC-15
Summary of the method: as §1

NCI-H1975 = test system: NCI-H1975
Summary of the method: as §1

NCI-H1993 = test system: NCI-H1993
Summary of the method: as §1

NCI-H1734 = test system: NCI-H1734
Summary of the method: as §1

NCI-H3122 = test system: NCI-H3122
Summary of the method: as §1

NCI-H2228 = test system: NCI-H2228
Summary of the method: as §1

PC-14 = test system: PC-14
Summary of the method: as §1

NCI-H661 = test system: NCI-H661
Summary of the method: as §1

H3255 = test system: H3255
Summary of the method: as §1

NCI-H1944 = test system: NCI-H1944
Summary of the method: as §1

SK-LU-1 = test system: SK-LU-1
Summary of the method: as §1

COR-L 105 = test system: COR-L 105
Summary of the method: as §1

NCI-H838 = test system: NCI-H838
Summary of the method: as §1

## CCCCCCCCCCCC1=C(O)C(=O)C=C(O)C1=O [Embelin] + O=C(c1cc(Cc2n[nH]c(=O)c3ccccc23)ccc1F)N1CCN(C(=O)C2CC2)CC1 [Olaparib] (partner 8 µM)
NCI-H1395; first compound 0.08 µM
  relative viability: 0.539
NCI-H1395; first compound 0.8 µM
  relative viability: 0.486
NCI-H1395; first compound 2.53 µM
  relative viability: 0.461
NCI-H1395; first compound 8 µM
  relative viability: 0.443
NCI-H647; first compound 0.08 µM
  relative viability: 0.575
NCI-H647; first compound 0.8 µM
  relative viability: 0.67
NCI-H647; first compound 2.53 µM
  relative viability: 0.705
NCI-H647; first compound 8 µM
  relative viability: 0.678
HCC-366; first compound 0.08 µM
  relative viability: 0.335
HCC-366; first compound 0.8 µM
  relative viability: 0.369
HCC-366; first compound 2.53 µM
  relative viability: 0.372
HCC-366; first compound 8 µM
  relative viability: 0.423
LU99A; first compound 0.08 µM
  relative viability: 0.293
LU99A; first compound 0.8 µM
  relative viability: 0.218
LU99A; first compound 2.53 µM
  relative viability: 0.281
LU99A; first compound 8 µM
  relative viability: 0.241
CAL-12T; first compound 0.08 µM
  relative viability: 0.726
CAL-12T; first compound 0.8 µM
  relative viability: 0.727
CAL-12T; first compound 2.53 µM
  relative viability: 0.706
CAL-12T; first compound 8 µM
  relative viability: 0.677
NCI-H1666; first compound 0.08 µM
  relative viability: 0.749
NCI-H1666; first compound 0.8 µM
  relative viability: 0.779
NCI-H1666; first compound 2.53 µM
  relative viability: 0.827
NCI-H1666; first compound 8 µM
  relative viability: 0.713
NCI-H520; first compound 0.08 µM
  relative viability: 0.39
NCI-H520; first compound 0.8 µM
  relative viability: 0.327
NCI-H520; first compound 2.53 µM
  relative viability: 0.342
NCI-H520; first compound 8 µM
  relative viability: 0.352
NCI-H522; first compound 0.08 µM
  relative viability: 0.674
NCI-H522; first compound 0.8 µM
  relative viability: 0.633
NCI-H522; first compound 2.53 µM
  relative viability: 0.689
NCI-H522; first compound 8 µM
  relative viability: 0.945
PC-3 [JPC-3]; first compound 0.08 µM
  relative viability: 1.12
PC-3 [JPC-3]; first compound 0.8 µM
  relative viability: 1.17
PC-3 [JPC-3]; first compound 2.53 µM
  relative viability: 1.17
PC-3 [JPC-3]; first compound 8 µM
  relative viability: 1.07
HARA; first compound 0.08 µM
  relative viability: 0.85
HARA; first compound 0.8 µM
  relative viability: 0.734
HARA; first compound 2.53 µM
  relative viability: 1.12
HARA; first compound 8 µM
  relative viability: 0.763
LC-2-ad; first compound 0.08 µM
  relative viability: 0.675
LC-2-ad; first compound 0.8 µM
  relative viability: 0.728
LC-2-ad; first compound 2.53 µM
  relative viability: 0.678
LC-2-ad; first compound 8 µM
  relative viability: 0.727
HCC-15; first compound 0.08 µM
  relative viability: 0.689
HCC-15; first compound 0.8 µM
  relative viability: 0.727
HCC-15; first compound 2.53 µM
  relative viability: 0.823
HCC-15; first compound 8 µM
  relative viability: 0.73
NCI-H1975; first compound 0.08 µM
  relative viability: 0.887
NCI-H1975; first compound 0.8 µM
  relative viability: 0.779
NCI-H1975; first compound 2.53 µM
  relative viability: 0.932
NCI-H1975; first compound 8 µM
  relative viability: 0.904
NCI-H1993; first compound 0.08 µM
  relative viability: 1.16
NCI-H1993; first compound 0.8 µM
  relative viability: 1.07
NCI-H1993; first compound 2.53 µM
  relative viability: 1.21
NCI-H1993; first compound 8 µM
  relative viability: 1.6
NCI-H1734; first compound 0.08 µM
  relative viability: 0.623
NCI-H1734; first compound 0.8 µM
  relative viability: 0.568
NCI-H1734; first compound 2.53 µM
  relative viability: 0.651
NCI-H1734; first compound 8 µM
  relative viability: 0.644
NCI-H3122; first compound 0.08 µM
  relative viability: 0.646
NCI-H3122; first compound 0.8 µM
  relative viability: 0.603
NCI-H3122; first compound 2.53 µM
  relative viability: 0.609
NCI-H3122; first compound 8 µM
  relative viability: 0.671
NCI-H2228; first compound 0.08 µM
  relative viability: 0.474
NCI-H2228; first compound 0.8 µM
  relative viability: 0.886
NCI-H2228; first compound 2.53 µM
  relative viability: 0.735
NCI-H2228; first compound 8 µM
  relative viability: 0.755
PC-14; first compound 0.08 µM
  relative viability: 0.279
PC-14; first compound 0.8 µM
  relative viability: 0.264
PC-14; first compound 2.53 µM
  relative viability: 0.303
PC-14; first compound 8 µM
  relative viability: 0.26
NCI-H661; first compound 0.08 µM
  relative viability: 0.771
NCI-H661; first compound 0.8 µM
  relative viability: 0.75
NCI-H661; first compound 2.53 µM
  relative viability: 0.737
NCI-H661; first compound 8 µM
  relative viability: 0.722
H3255; first compound 0.08 µM
  relative viability: 0.561
H3255; first compound 0.8 µM
  relative viability: 0.614
H3255; first compound 2.53 µM
  relative viability: 0.59
H3255; first compound 8 µM
  relative viability: 0.546
NCI-H1944; first compound 0.08 µM
  relative viability: 0.402
NCI-H1944; first compound 0.8 µM
  relative viability: 0.474
NCI-H1944; first compound 2.53 µM
  relative viability: 0.472
NCI-H1944; first compound 8 µM
  relative viability: 0.425
SK-LU-1; first compound 0.08 µM
  relative viability: 0.591
SK-LU-1; first compound 0.8 µM
  relative viability: 0.56
SK-LU-1; first compound 2.53 µM
  relative viability: 0.505
SK-LU-1; first compound 8 µM
  relative viability: 0.433
COR-L 105; first compound 0.08 µM
  relative viability: 0.737
COR-L 105; first compound 0.8 µM
  relative viability: 0.611
COR-L 105; first compound 2.53 µM
  relative viability: 0.615
COR-L 105; first compound 8 µM
  relative viability: 0.573
NCI-H838; first compound 0.08 µM
  relative viability: 0.736
NCI-H838; first compound 0.8 µM
  relative viability: 0.83
NCI-H838; first compound 2.53 µM
  relative viability: 0.883
NCI-H838; first compound 8 µM
  relative viability: 0.766
